Values joined by “and” are separate entries in the source; they are usually repeats but may differ in a detail not shown here. Equal entries are not always repeated.
Tested on: 292921-168-R-J2-PDC spheroids with HUVEC/MSC, viability
Assay: Anticancer human tumor 292921-168-R-J2-PDC patient-derived pancreatic carcinoma cell line growth inhibition [TAK]
Settings: for viability, T/C: stronger effect = lower value
Description: Combinatorial screen of targeted agents with TAK-243 and ipatasertib in multi-cell type tumor spheroids
A high-throughput screen of multi-cell type tumor spheroids was designed to identify active combinations of targeted small molecules and TAK-243 or ipatasertib. Complex spheroids include a stromal component modeled by human endothelial cells (HUVEC) and fibroblasts modeled by human mesenchymal stem cells (MSCs). The concentration ranges selected for each drug and investigational agent were based upon clinically achievable concentrations if the clinical Cmax of the agent was known.
Compounds. The drugs and investigational agents: TAK-243 (785004), ipatasertib (767898), everolimus (733504), selumetinib (741078), bortezomib (756655), trametinib (758246), ixazomib (758254), vemurafenib (761431), dabrafenib (764134), sapanisertib (764658), alpelisib (765974), and copanlisib (816437), were obtained from the National Cancer Institute (NCI) Developmental Therapeutics Program Chemical Repository. The FDA-approved anticancer drug set is available from the NCI Developmental Therapeutics Program. […] The stock solutions were prepared in dimethyl sulfoxide (DMSO, Sigma-Aldrich, St. Louis, MO, cat. D2650) at 800-fold the tested concentration and stored at -70 degrees C prior to their use. All drugs and investigational agents were tested over a range starting from a high concentration at or near the clinical Cmax and decreasing in half-log increments. If the clinical Cmax for an agent had not been determined, the highest concentration tested was 10 microM.
NCI60 Cell Culture. NCI60 cell lines were obtained from the NCI Developmental Therapeutics Program Tumor Repository. For each lot of cells, the Repository performed Applied Biosystems AmpFLSTR Identifiler testing with PCR amplification to confirm consistency with the published Identifier STR profile for each cell line. Cells were kept in continuous culture for no more than 20 passages. The optimal seeding densities for each of the cell lines at each time point assessed were determined prior to performing the concentration response studies. Briefly, the NCI60 human tumor lines were grown as monolayers in RPMI 1640 medium supplemented with 10% FBS and 2 mmol/L L-glutamine.
An additional 2 lines were from the NCI60 cell line panel including melanomas, MALME-3M and SK-MEL-2. Pooled donor human umbilical vein endothelial cells (HUVEC, Lonza, cat. CC-2519) and human mesenchymal stem cells (hMSC, Lonza, cat. PT-2501) were purchased from Lonza (Walkersville, MD).
PDMR cell lines were grown in complete medium (DC medium): Dulbecco's modified Eagle's medium (DMEM)/F12 supplemented with 5% fetal bovine serum (FBS), 2 mM L-glutamine, 100 U/mL penicillin and 100 µg/ml streptomycin, 0.4 µg/ml hydrocortisone, 10 ng/ml epidermal growth factor (EGF) recombinant human protein, 24 µg/mL adenine, and 0.1 mg/mL primocin. During culture from frozen stock vials, PDMR cells were cultured in the same medium containing 10 µM Y-27632 (see Table 3). The PDCs were cultured in complete DMEM/F12 media without 10 microM Y-27632 dihydrochloride for at least two passages prior to the screen. The pooled donor HUVEC and hMSC were cultured in endothelial cell growth medium 2 (PromoCell, Heidelberg, Germany, cat. C-22011) and mesenchymal stem cell growth medium 2 (PromoCell, cat. C-28009), respectively. For all experiments, HUVEC and hMSC were used at passages </=5.
For the pre-screen, cell seeding densities were determined from a titration spanning the range from 5,000 to 313 cells per well. The mct-spheroids including 60% malignant cells, 25% HUVEC and 15% MSC dispensed as a mixture into U-bottom Ultra-Low Attachment 384-well plates (Corning, NY)
High-throughput Drug Combination Screening.
Prior to their inoculation into 384-well plates, malignant cells, HUVEC, and hMSC were removed from T flasks using TrypLE express (Thermo Fisher Scientific, cat. 12605036) and harvested by centrifugation for 5 min at 233 x g. […]

[1] = curve of first compound, second compound 0.3 µM
[2] = curve of first compound, second compound 0.949 µM
[3] = curve of first compound, second compound 3 µM
[4] = curve of first compound, second compound 9.49 µM
[5] = curve of first compound, second compound 30 µM
[6] = second compound 0.3 µM, first compound 0.00316 µM
[7] = second compound 0.3 µM, first compound 0.01 µM
[8] = second compound 0.3 µM, first compound 0.0316 µM
[9] = second compound 0.3 µM, first compound 0.1 µM
[10] = second compound 0.949 µM, first compound 0.00316 µM
[11] = second compound 0.949 µM, first compound 0.01 µM
[12] = second compound 0.949 µM, first compound 0.0316 µM
[13] = second compound 0.949 µM, first compound 0.1 µM
[14] = second compound 3 µM, first compound 0.00316 µM
[15] = second compound 3 µM, first compound 0.01 µM
[16] = second compound 3 µM, first compound 0.0316 µM
[17] = second compound 3 µM, first compound 0.1 µM
[18] = second compound 9.49 µM, first compound 0.00316 µM
[19] = second compound 9.49 µM, first compound 0.01 µM
[20] = second compound 9.49 µM, first compound 0.0316 µM
[21] = second compound 9.49 µM, first compound 0.1 µM
[22] = second compound 30 µM, first compound 0.00316 µM
[23] = second compound 30 µM, first compound 0.01 µM
[24] = second compound 30 µM, first compound 0.0316 µM
[25] = second compound 30 µM, first compound 0.1 µM
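Also: spheroids exposed to drugs for seven days before readout.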

| SMILES | IC50 [1] [nM] | IC50 [2] [nM] | IC50 [3] [nM] | IC50 [4] [nM] | IC50 [5] [nM] | viability, T/C [6] [%] | viability, T/C [7] [%] | viability, T/C [8] [%] | viability, T/C [9] [%] | viability, T/C [10] [%] | viability, T/C [11] [%] | viability, T/C [12] [%] | viability, T/C [13] [%] | viability, T/C [14] [%] | viability, T/C [15] [%] | viability, T/C [16] [%] | viability, T/C [17] [%] | viability, T/C [18] [%] | viability, T/C [19] [%] | viability, T/C [20] [%] | further results |
| --- | --- | --- | --- | --- | --- | --- | --- | --- | --- | --- | --- | --- | --- | --- | --- | --- | --- | --- | --- | --- | --- |
| CC(C)n1nc(-c2ccc3oc(N)nc3c2)c2c(N)ncnc21 + CC(C)NCC(C(=O)N1CCN(c2ncnc3c2C(C)CC3O)CC1)c1ccc(Cl)cc1 | 9.58 | 8.57 | 6.94 | 2.52 | < 0.316 | 67.4 | 49.9 | 35.3 | 32.2 | 63.7 | 48.9 | 35 | 32.2 | 62.2 | 43.8 | 34.2 | 29 | 48.3 | 37.8 | 27.6 | viability, T/C (second compound 0.3 µM, first compound 0.000316 µM): 81%; viability, T/C (second compound 0.3 µM, first compound 0.001 µM): 77.2%; viability, T/C (second compound 0.949 µM, first compound 0.000316 µM): 81.6%; viability, T/C (second compound 0.949 µM, first compound 0.001 µM): 70.9%; viability, T/C (second compound 3 µM, first compound 0.000316 µM): 73.6%; viability, T/C (second compound 3 µM, first compound 0.001 µM): 73%; viability, T/C (second compound 9.49 µM, first compound 0.000316 µM): 63.7%; viability, T/C (second compound 9.49 µM, first compound 0.001 µM): 57%; viability, T/C [21]: 26.3%; viability, T/C (second compound 30 µM, first compound 0.000316 µM): 43.4%; viability, T/C (second compound 30 µM, first compound 0.001 µM): 39.7%; viability, T/C [22]: 33.7%; viability, T/C [23]: 26.4%; viability, T/C [24]: 23.9%; viability, T/C [25]: 21.7% |
| COc1c(OCCCN2CCOCC2)ccc2c3n(c(=NC(=O)c4cnc(N)nc4)nc12)CCN3 |  |  |  |  |  |  |  |  |  |  |  |  |  |  |  |  |  |  |  |  | viability, T/C (compound 0.00316 µM): 74.5% and 83.2%; viability, T/C (compound 0.01 µM): 43.7% and 51.3%; viability, T/C (compound 0.0316 µM): 28.2% and 30.1%; viability, T/C (compound 0.1 µM): 14.5% and 16.6%; viability, T/C (compound 0.316 µM): 10.4% and 12.4%; viability, T/C (compound 1 µM): 8.83% and 11.2%; IC50 (curve of compound): 8.15 nM and 10.9 nM |
| COc1c(OCCCN2CCOCC2)ccc2c3n(c(=NC(=O)c4cnc(N)nc4)nc12)CCN3 + CC(C)NCC(C(=O)N1CCN(c2ncnc3c2C(C)CC3O)CC1)c1ccc(Cl)cc1 | 4.15 | < 3.16 | < 3.16 | < 3.16 | < 3.16 | 55.2 | 33.2 | 19.1 | 13.5 | 43.5 | 27.5 | 20 | 13.1 | 30.2 | 21.4 | 15.2 | 12.4 | 26.4 | 15.9 | 12 | viability, T/C (second compound 0.3 µM, first compound 0.316 µM): 10.2%; viability, T/C (second compound 0.3 µM, first compound 1 µM): 9.21%; viability, T/C (second compound 0.949 µM, first compound 0.316 µM): 9.66%; viability, T/C (second compound 0.949 µM, first compound 1 µM): 8.79%; viability, T/C (second compound 3 µM, first compound 0.316 µM): 9.94%; viability, T/C (second compound 3 µM, first compound 1 µM): 8.66%; viability, T/C [21]: 9.29%; viability, T/C (second compound 9.49 µM, first compound 0.316 µM): 8.18%; viability, T/C (second compound 9.49 µM, first compound 1 µM): 7.72%; viability, T/C [22]: 19.8%; viability, T/C [23]: 14.1%; viability, T/C [24]: 10.3%; viability, T/C [25]: 7.72%; viability, T/C (second compound 30 µM, first compound 0.316 µM): 6.76%; viability, T/C (second compound 30 µM, first compound 1 µM): 7.15% |

Source: PubChem BioAssay AID2060357 (Molecular Pharmacology Branch, DTP, NCI, 2025)
